Values quoted from earlier work as cited in patent US10634592B2, “Process for microextraction and detection of an analyte” (KING FAHD UNIVERSITY OF PETROLEUM AND MINERALS, priority 2015, dated 2020).

Experiments:
[1] = octanol-water partition coefficient
[2] = system: cellular glutathione levels; conditions: prior to cytotoxic effects

SMILES	log Kow [1]	Effect on cellular glutathione levels [2]
ClC(Cl)Br [BDCM, bromodichloromethane]	1.88	
ClC(Br)Br [DBCM, dibromochloromethane]	2.08	
CC(=O)C(Cl)Cl [DCP, 1,1-dichloro-2-propanone]	0.20	reduce cellular glutathione levels
BrC(Br)Br [TBM, tribromomethane]	2.38	
ClC(Cl)Cl [TCM, trichloromethane]	1.97	
CC(=O)C(Cl)(Cl)Cl [TCP, 1,1,1-trichloro-2-propanone]	1.12	
